Test results reported in patent publication US20260183281A1, “PHARMACEUTICAL COMPOSITION COMPRISING A PRMT5 INHIBITOR AND AN EGFR INHIBITOR” (APEIRON THERAPEUTICS (HONG KONG) LTD., priority 2024, published 2026).

Tests used:
[1] = tested on: NCI-H292 MTAP deleted cells; test: Cell growth inhibition (CellTiter-Glo, 144 h), single agents and combinations, CI by Calcusyn; assay type: cell-based; conditions: for IC20 / IC50: Homo sapiens, NCI-H292, single agent; for Max Inh %: single agent
Procedure: NCI-H292 MTAP deleted cell line was purchased from Nanjing Cobioer Biotechnology Co., Ltd. The cells were cultured in a cell culture medium containing 90% RPMI1640 and 10% fetal bovine serum at 37° C. and 5% CO2. Experiments could only be performed on cells in the logarithmic growth phase.
Adjust the cell density in complete medium and seed the cells into 96-well culture plates. Incubate the plates at 37° C. with 5% CO2. Add the two test compounds to the plates using a serial dilution scheme. Continue incubation at 37° C. and 5% CO2 for 144 h. Thaw the CellTiter-Glo (CTG) reagent and equilibrate the plates to room temperature for ˜30 min. Add an equal volume of CTG reagent to each well, shake on an orbital shaker for 5 min to lyse the cells, and allow the signal to stabilize at room temperature for 20 min. Measure luminescence on a plate reader and record the data. Data analysis:
Cell growth inhibition (%)=100−(Lum test drug−Lum culture medium control)/(Lum solvent control−Lum culture medium control)×100%
Calcusyn was used to analyze the combination index (CI) values.

[2] = tested on: human lung cancer PDX model LD1-0025-200729; test: In vivo pharmacodynamic study in PDX NU/NU mouse model of Osimertinib-resistant non-small cell lung cancer; parameters: species or system NU/NU mice; conditions: for Tumor volume (mm^3) Mean: each drug 10 mg/kg PO QD; for tumor growth inhibition (TGI) / statistical difference compared with the control group: each drug 10 mg/kg, PO, once daily; for tumor growth inhibition (TGI): 56-day study; for statistical difference compared with the control group: one-way ANOVA
Excerpt: NU/NU mice, female, 6-8 weeks old, weighing approximately 18-22 g. They were purchased from Beijing Vital River Laboratory Animal Technology Co., Ltd. All experimental mice were kept in the SPF-level animal room of Xi'an LIDE and acclimated for at least 3 days in advance. The lung cancer model tumor-bearing mice were chosen. When a tumor grew to 800-1000 mm^3, the tumor was taken out under sterile conditions and passed it subcutaneously into NU/NU mice. When the average tumor volume reached about 150 mm^3 (100-200 mm^3), 18 tumor-bearing mice were chosen and randomly divided into 6 groups according to the tumor volume. The day of grouping was Day 0, and they were administered according to the following solution:
N: Number of animals; dose volume: 10 μL/g; PO: per os. Administer Osimertinib or Osimertinib solvent first, and administer compound A or compound A solvent after an interval of 1 hour.
The main purpose was to detect the growth inhibition effect or complete cure ability of the test drug compound A as a single drug or in combination with Osimertinib on the human lung cancer PDX model LD1-0025-200729.
Tumor volume and weight measurement of tumor-bearing mice: A vernier caliper was used to measure twice a week. The calculation equation for tumor volume is V=0.5 a×b^2, where a and b represent the major and minor diameters of the tumor, respectively;
Tumor growth inhibition: TGI (%)=[1−(Ti−T0)/(Vi−V0)]×100
Ti is the mean tumor volume after the start of administration in the compound group, T0 is the mean tumor volume at the first dose in the compound group, V0 is the mean tumor volume at the first dose in the vehicle control group, and Vi is the mean tumor volume after the start of administration in the vehicle control group.

[3] = administration time 0 days (grouping)

SMILES	IC20 [1]	IC50 [1]	Max Inh % [1]	Tumor volume (mm^3) Mean [2, 3]	Tumor volume (mm^3) Mean ([2]; administration time 4 days)	Tumor volume (mm^3) Mean ([2]; administration time 7 days)	Tumor volume (mm^3) Mean ([2]; administration time 11 days)	Tumor volume (mm^3) Mean ([2]; administration time 14 days)	Tumor volume (mm^3) Mean ([2]; administration time 18 days)	Tumor volume (mm^3) Mean ([2]; administration time 21 days)	Tumor volume (mm^3) Mean ([2]; administration time 25 days)	Tumor volume (mm^3) Mean ([2]; administration time 28 days)	Tumor volume (mm^3) Mean ([2]; administration time 32 days)	Tumor volume (mm^3) Mean ([2]; administration time 35 days)	Tumor volume (mm^3) Mean ([2]; administration time 39 days)	Tumor volume (mm^3) Mean ([2]; administration time 42 days)	Tumor volume (mm^3) Mean ([2]; administration time 46 days)	Tumor volume (mm^3) Mean ([2]; administration time 49 days)	Tumor volume (mm^3) Mean ([2]; administration time 53 days)	Tumor volume (mm^3) Mean ([2]; administration time 56 days)	also measured
CN(C(=O)c1ccc2nc(N)c3cncn3c2c1)[C@@H]1COc2cc(C(F)(F)F)ccc21 [Compound A, (S)-4-amino-N-methyl-N-(6-(trifluoromethyl)-2,3-dihydrobenzofuran-3-yl)imidazo[1,5-a]quinoxaline-8-carboxamide]	10.7 nM	117 nM	71.2%	155.2 mm^3	179.8 mm^3	205.2 mm^3	228.6 mm^3	251.0 mm^3	274.5 mm^3	271.3 mm^3	315.2 mm^3	321.2 mm^3	318.3 mm^3	308.3 mm^3	288.3 mm^3	266.9 mm^3	278.7 mm^3	281.0 mm^3	283.7 mm^3	287.7 mm^3	TGI (%) ([1]; Compound A 3.20 nM, Osimertinib 0 nM): 11.4%; TGI (%) ([1]; Compound A 16.0 nM, Osimertinib 0 nM): 10.8%; TGI (%) ([1]; Compound A 80.0 nM, Osimertinib 0 nM): 45.6%; TGI (%) ([1]; Compound A 400 nM, Osimertinib 0 nM): 51.8%; TGI (%) ([1]; Compound A 2000 nM, Osimertinib 0 nM): 66.6%; TGI (%) ([1]; Compound A 10000 nM, Osimertinib 0 nM): 75.1%; Tumor volume (mm^3) Mean ([2]; administration time 57 days): 288.1 mm^3; tumor growth inhibition (TGI) [2]: 85.8%; statistical difference compared with the control group [2]: statistically significant difference
C[C@H](c1ccc(C(F)(F)F)cn1)N(C(=O)c1cc2c(cc1F)nc(N)c1cncn12)C1CC1 [Compound C]	9.6 nM	49.9 nM	64.6%	–	–	–	–	–	–	–	–	–	–	–	–	–	–	–	–	–	TGI (%) ([1]; Compound C 3.20 nM, Osimertinib 0.0 nM): 4.0%; TGI (%) ([1]; Compound C 16.0 nM, Osimertinib 0.0 nM): 23.7%; TGI (%) ([1]; Compound C 80.0 nM, Osimertinib 0.0 nM): 38.2%; TGI (%) ([1]; Compound C 400 nM, Osimertinib 0.0 nM): 49.5%; TGI (%) ([1]; Compound C 2000 nM, Osimertinib 0.0 nM): 61.0%; TGI (%) ([1]; Compound C 10000 nM, Osimertinib 0.0 nM): 60.4%
C=CC(=O)Nc1cc(Nc2nccc(-c3cn(C)c4ccccc34)n2)c(OC)cc1N(C)CCN(C)C [Osimertinib, reference compound]	18.6 nM	50.2 nM	91.1%	155.7 mm^3	185.9 mm^3	208.3 mm^3	232.2 mm^3	253.6 mm^3	288.4 mm^3	310.4 mm^3	369.2 mm^3	407.1 mm^3	439.2 mm^3	470.2 mm^3	501.3 mm^3	534.5 mm^3	589.4 mm^3	605.3 mm^3	633.7 mm^3	679.4 mm^3	TGI (%) ([1]; Osimertinib 4 nM, Compound A 0 nM): 16.0%; TGI (%) ([1]; Osimertinib 4.1 nM, Compound C 0 nM): 20.5%; TGI (%) ([1]; Osimertinib 12 nM, Compound A 0 nM): 13.4%; TGI (%) ([1]; Osimertinib 12.3 nM, Compound C 0 nM): 18.8%; TGI (%) ([1]; Osimertinib 37 nM, Compound A 0 nM): 35.4%; TGI (%) ([1]; Osimertinib 37.0 nM, Compound C 0 nM): 34.3%; TGI (%) ([1]; Osimertinib 111 nM, Compound A 0 nM): 70.6%; TGI (%) ([1]; Osimertinib 111.1 nM, Compound C 0 nM): 68.4%; TGI (%) ([1]; Osimertinib 333 nM, Compound A 0 nM): 81.8%; TGI (%) ([1]; Osimertinib 333.3 nM, Compound C 0 nM): 81.4%; TGI (%) ([1]; Osimertinib 1000 nM, Compound A 0 nM): 90.9%; TGI (%) ([1]; Osimertinib 1000.0 nM, Compound C 0 nM): 92.3%; Tumor volume (mm^3) Mean ([2]; administration time 57 days): 689.6 mm^3; tumor growth inhibition (TGI) [2]: 43.1%; statistical difference compared with the control group [2]: no statistically significant difference
